Measured values: patent publication US9551711B2, “Compositions and methods for detecting nitration of PKG-1α and methods of use thereof” (Augusta University Research Institute, Inc., priority 2013, dated 2017)

How the values were obtained:
PKG-1α [1] = target: T1, PKG-1α (Homo sapiens, UniProt Q13976, Y247F); test: PKG activity in transfected HEK-293T cells; format: cell-based; parameters: made in house; host or cells: HEK-293T; settings: HEK-293T expressing Y247F-PKG-1α; SIN-1 500 μM, 30 min
T1 sequence (Q13976 2-671 Y247F): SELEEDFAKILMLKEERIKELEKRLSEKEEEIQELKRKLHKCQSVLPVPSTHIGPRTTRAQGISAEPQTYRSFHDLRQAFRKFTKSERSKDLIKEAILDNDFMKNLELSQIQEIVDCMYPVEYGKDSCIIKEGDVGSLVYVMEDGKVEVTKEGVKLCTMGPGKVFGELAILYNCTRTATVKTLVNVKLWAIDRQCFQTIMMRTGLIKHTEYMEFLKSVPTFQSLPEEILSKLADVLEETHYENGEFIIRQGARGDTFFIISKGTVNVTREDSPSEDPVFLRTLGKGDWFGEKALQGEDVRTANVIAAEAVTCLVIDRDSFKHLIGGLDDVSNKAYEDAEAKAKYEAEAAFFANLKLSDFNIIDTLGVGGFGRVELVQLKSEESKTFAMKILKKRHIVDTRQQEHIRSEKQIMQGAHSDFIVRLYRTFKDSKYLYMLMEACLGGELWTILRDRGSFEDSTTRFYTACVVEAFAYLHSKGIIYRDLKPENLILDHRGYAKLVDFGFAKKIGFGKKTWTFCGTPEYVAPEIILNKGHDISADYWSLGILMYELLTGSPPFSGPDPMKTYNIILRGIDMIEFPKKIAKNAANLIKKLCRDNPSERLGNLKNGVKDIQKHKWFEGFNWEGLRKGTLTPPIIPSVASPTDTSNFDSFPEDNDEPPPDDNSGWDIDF
Experimental: (§1) To determine the role of tyrosine 247 and tyrosine 425 in mediating the nitration dependent inhibition of PKG-1α kinase activity, Y247F- and Y425F-PKG-1α mutants were generated and expressed in HEK-293T cells. HEK-293T cells were transiently transfected with expression plasmids containing WT-, Y247F-, or Y425F-PKG-1α for 48 h. […] Protein extracts were immunoprecipitated using an antibody raised against PKG-1α and the level of nitrated PKG-1α determined by probing the membranes with an antiserum raised against 3-NT. The blots were then stripped and re-probed for PKG-1α to normalize for the efficiency of the immunoprecipitation.
Total PKG activity was determined using a non-radioactive immunoassay in cell lysates, according to the manufacturer's directions. […]
(§2) After incubation for 30 min at 30° C. to allow the phosphorylation of the bound substrate, an HRP conjugated anti-phosphothreonine specific antibody was added to convert a chromogenic substrate to a colorimetric substrate that was subsequently read spectrophotometrically at 450 nm. The change in absorbance reflected the relative activity of PKG in the sample. […] The kinetic constants were determined using nonlinear regression (curve fit) analysis (GraphPad Prism Software Inc.).

PKG-1α [2] = test: PKG-1α nitration (IP, 3-NT immunoblot) in transfected HEK-293T cells; format: cell-based, human; settings: SIN-1 500 μM, 30 min
Experimental: Cells were homogenized in 3× weight/volume of IP buffer (25 mM Hepes, pH 7.5, 150 mM NaCl, 1% NP-40, 10 mM MgCl2, 1 mM EDTA, 2% glycerol, supplemented with protease inhibitor). The homogenates were then centrifuged at 20,000 g at 4° C. for 20 min, the supernatant was collected, and the protein concentration was quantified by the Bio-Rad DC Protein Assay. To 1000 μg of total protein, 4 μg of antibody against PKG-1α was added; the volume was brought to 1 ml with IP buffer, and the mixture was incubated at 4° C. overnight. To precipitate the bound protein, 30 μl of protein G plus agarose suspension (EMD biosciences, Inc., San Diego, Calif.) was added, and the samples were incubated for 2 h at 4° C. To collect the bead-bound antibody, the samples were then centrifuged at 2000 g for 5 min at 4° C., the supernatant was removed, and the beads were washed 3× with 500 μl of IP buffer. To the samples, 30 μl of 2× Laemmli buffer was added, and the samples were boiled for 5 min and then resolved using 4-20% Tris-SDS-Hepes PAGE. The membrane was then probed for 3-nitrotyrosine (1:100 dilution), as described above. The IP efficiency was normalized by re-probing for PKG-1α (1:500).
as §1

[3] = system: pulmonary artery smooth muscle cells (PASMC); test: PASMC phenotype markers MYH, Calponin-1, Vimentin (Western blot); format: cell-based, lamb; settings: WT-PKG-1α transfected PASMC; SIN-1 500 μM, 48 h
Experimental: To assess the effect of nitration on pulmonary arterial smooth muscle cell (PASMC) phenotype, PASMC were transiently transfected with expression plasmids containing WT-PKG-1α, Y247F-PKG-1α, or PDEST40 (as a control) for 20 h. Cells were then exposed or not to SIN-1 (500 μM, 48 h) and the effect on synthetic and contractile markers determined. The levels of myosin heavy chain (MYH, FIG. 3A), Calponin-1 (FIG. 3B), and Vimentin (FIG. 3C) were determined. The blots were then stripped and re-probed for β-actin to normalize for protein loading. PASMC were also subjected to immunohistochemistry using antibodies to SM22-α (5 μg/ml) and PCNA (1 μg/ml). Relevant secondary antibodies linked to Alexa Fluor 488 (green) were then applied. DAPI was also used to stain (blue) the cell nuclei.

PKG-1α [4] = target: T1, PKG-1α; test: PKG catalytic activity, Michaelis-Menten kinetics for cGMP; format: biochemical; parameters: made in house; host or cells: HEK-293T; settings: Y247F mutant upon SIN-1 treatment
Experimental: Total PKG activity was determined using a non-radioactive immunoassay in cell lysates, according to the manufacturer's directions. Briefly, protein samples were diluted in kinase reaction buffer containing Mg^2+ and ATP (125 μM) in the presence or absence of 8-Br cGMP (10 μM) and incubated in a 96 well plate pre-coated with a PKG substrate containing threonine residues phosphorylated by PKG.
as §2, with “sample. The results were reported as pmols of phosphate incorporated into the GST-G substrate fusion protein by active PKG in the sample in the presence or absence of cGMP (10 μM) per minute at 30° C. per μg of protein (pmol/min/μg).” for “sample.”
To determine the Michaelis-Menten constant (Km) for cGMP, the kinase assay was performed, as mentioned above; however, the cGMP concentration was titrated from 0-10 μM, while the ATP concentration remained constant at 125 μM.

cGMP dependent PKG activity (PKG-1α [1]): unaffected
change of Michaelis-Menten constant (Km) for cGMP (PKG-1α [4]): no significant change
Substance: 3-morpholinosydnonimine N-ethylcarbamide [SIN-1]
nitration of PKG-1α (3-NT/PKG-1α) (PKG-1α [2]; HEK-293T expressing WT-PKG-1α): significantly increased
nitration of PKG-1α (3-NT/PKG-1α) (PKG-1α [2]; HEK-293T expressing Y247F-PKG-1α): no significant increases
nitration of PKG-1α (3-NT/PKG-1α) (PKG-1α [2]; HEK-293T expressing Y425F-PKG-1α): no significant increases
expression of contractile marker Calponin-1 [3]: decreased
expression of contractile marker MYH [3]: decreased
expression of proliferative marker Vimentin [3]: increased
